# Assay results: patent US8093285B2, “Aminopiperidinyl derivatives and uses thereof” (Roche Palo Alto LLC, priority 2008, dated 2012)
# What was measured:
# Assay type in all cases: binding
# [1] = biological target: T1, human serotonin transporter (hSERT) (Homo sapiens, UniProt P31645); test: Screening for human serotonin transporter (hSERT) antagonists, scintillation proximity assay (SPA); conditions: competition with [3H]-Citalopram; membranes of HEK-293 cells expressing recombinant hSERT
# T1 construct: expressed in transfected cells; Tatsumi et al. 1997
# T1 sequence (P31645 whole entry): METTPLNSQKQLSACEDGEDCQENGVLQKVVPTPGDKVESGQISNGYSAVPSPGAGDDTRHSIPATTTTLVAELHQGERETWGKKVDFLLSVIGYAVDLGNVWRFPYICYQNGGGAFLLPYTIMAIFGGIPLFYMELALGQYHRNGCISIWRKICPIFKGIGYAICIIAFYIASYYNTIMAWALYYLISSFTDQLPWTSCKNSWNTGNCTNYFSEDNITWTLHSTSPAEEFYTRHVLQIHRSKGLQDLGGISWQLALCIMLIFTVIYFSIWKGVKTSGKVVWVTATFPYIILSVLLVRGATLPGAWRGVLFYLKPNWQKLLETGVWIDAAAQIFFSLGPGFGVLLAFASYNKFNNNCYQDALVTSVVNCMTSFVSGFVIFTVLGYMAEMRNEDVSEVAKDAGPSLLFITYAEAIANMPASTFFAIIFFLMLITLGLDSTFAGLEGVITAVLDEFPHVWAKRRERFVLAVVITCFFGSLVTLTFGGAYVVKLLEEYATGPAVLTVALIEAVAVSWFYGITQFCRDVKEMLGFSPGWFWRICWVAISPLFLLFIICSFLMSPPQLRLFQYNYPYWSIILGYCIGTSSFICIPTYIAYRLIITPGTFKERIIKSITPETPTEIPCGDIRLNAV
# Procedure: The screening assay of this example was used to determine the affinity of ligands at the hSERT transporter by competition with [^3H]-Citalopram.
# Scintillation Proximity Assay (SPA) works by bringing radioligand within close proximity to the bead's scintillant to stimulate light emission. In this assay, the receptor-containing membranes were pre-coupled to the SPA beads and the binding of the appropriate radioligand to the transporter was measured. The light emission was proportional to the amount of bound radioligand. Unbound radioligand produced no signal as a result of distant proximity to scintillant (lack of energy transfer). […]
# (§1) Cell membranes were prepared using a membrane preparation buffer of 50 mM TRIS (pH 7.4). […] After a second centrifugation, the pellet was re-homogenized and brought to a final volume determined during the assay. […]
# The % inhibition was calculated for each compound tested [(Compound counts per minute (CPM) at maximum concentration-Non-Specific CPM)/Total CPM*100]. […]
# (§2) [formula] where max=total binding, min=non specific binding, x=concentration (M) of the tested compound and n=Hill slope. The inhibition dissociation constant (Ki) of each compound was determined according to the method of Cheng-Prusoff and then converted into negative logarithm (pKi) of the Ki.
# [2] = biological target: T2, human norepinephrine transporter (hNET) (Homo sapiens, UniProt P23975); test: Screening for compounds active at human norepinephrine transporter (hNET), scintillation proximity assay (SPA); conditions: competition with [3H]-Nisoxetine; membranes of HEK-293 cells expressing recombinant hNET
# T2 construct: expressed in transfected cells; Clone: HEK-hNET #2)
# T2 sequence (P23975 whole entry): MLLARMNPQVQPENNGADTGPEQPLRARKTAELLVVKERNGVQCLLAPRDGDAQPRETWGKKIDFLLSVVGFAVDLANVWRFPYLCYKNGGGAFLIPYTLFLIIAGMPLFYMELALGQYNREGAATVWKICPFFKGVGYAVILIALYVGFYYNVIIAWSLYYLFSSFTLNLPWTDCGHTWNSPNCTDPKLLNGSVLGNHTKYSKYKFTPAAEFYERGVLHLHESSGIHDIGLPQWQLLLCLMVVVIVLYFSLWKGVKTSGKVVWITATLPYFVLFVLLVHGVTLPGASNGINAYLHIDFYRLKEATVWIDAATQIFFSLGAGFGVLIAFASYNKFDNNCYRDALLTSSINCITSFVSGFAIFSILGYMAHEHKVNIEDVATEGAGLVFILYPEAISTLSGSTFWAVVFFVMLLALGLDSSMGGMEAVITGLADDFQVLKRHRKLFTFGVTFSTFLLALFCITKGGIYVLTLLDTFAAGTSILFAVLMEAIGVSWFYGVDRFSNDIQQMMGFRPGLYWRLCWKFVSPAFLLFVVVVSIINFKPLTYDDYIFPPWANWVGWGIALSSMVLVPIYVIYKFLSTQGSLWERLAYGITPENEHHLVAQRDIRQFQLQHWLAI
# Procedure: This assay was used to determine the affinity of ligands for the hNET transporter by competition with [^3H]-Nisoxetine. As in the hSERT assay of the above example, receptor-containing membranes were pre-coupled to the SPA beads and the binding of the appropriate radioligand to the transporter was measured. The light emission was proportional to the amount of bound radioligand, with unbound radioligand producing no signal.
# HEK-293 cells (Tatsumi et al., Eur. J. Pharmacol. 1997, 30, 249-258) stably expressing recombinant hNET (Clone: HEK-hNET #2) were maintained with media (DMEM hi glucose with 10% FBS, 300 μg/ml G418 and 2 mM L-Glutamine) and incubated at 37° C. with 5% CO2. Cells were released from culture flasks using PBS for 1-2 minutes. […]
# as §1
# ^3[H] […] The mixtures were allowed to stand at room temperature for one hour, and were then counted on a Packard TopCount LCS, a generic SPA counting protocol settings (Energy Range: Low, Efficiency Mode: Normal, Region A: 1.50-35.00, Region B: 1.50-256.00, Count Time (min.): 0.40, Background Subtract: none, Half-Life Correction: no, Quench Indicator: tSIS, Platemap blank subtraction: No, Cross talk reduction: Off). […]
# [3] = biological target: T3, human dopamine transporter (hDAT) (Homo sapiens, UniProt Q01959); test: Screening for compounds active at human dopamine transporter, scintillation proximity assay (SPA); conditions: competition with [3H]-Vanoxerine; HEK-293 cells expressing recombinant hDAT
# T3 construct: expressed in transfected cells; Tatsumi et al. 1997
# T3 sequence (Q01959 whole entry): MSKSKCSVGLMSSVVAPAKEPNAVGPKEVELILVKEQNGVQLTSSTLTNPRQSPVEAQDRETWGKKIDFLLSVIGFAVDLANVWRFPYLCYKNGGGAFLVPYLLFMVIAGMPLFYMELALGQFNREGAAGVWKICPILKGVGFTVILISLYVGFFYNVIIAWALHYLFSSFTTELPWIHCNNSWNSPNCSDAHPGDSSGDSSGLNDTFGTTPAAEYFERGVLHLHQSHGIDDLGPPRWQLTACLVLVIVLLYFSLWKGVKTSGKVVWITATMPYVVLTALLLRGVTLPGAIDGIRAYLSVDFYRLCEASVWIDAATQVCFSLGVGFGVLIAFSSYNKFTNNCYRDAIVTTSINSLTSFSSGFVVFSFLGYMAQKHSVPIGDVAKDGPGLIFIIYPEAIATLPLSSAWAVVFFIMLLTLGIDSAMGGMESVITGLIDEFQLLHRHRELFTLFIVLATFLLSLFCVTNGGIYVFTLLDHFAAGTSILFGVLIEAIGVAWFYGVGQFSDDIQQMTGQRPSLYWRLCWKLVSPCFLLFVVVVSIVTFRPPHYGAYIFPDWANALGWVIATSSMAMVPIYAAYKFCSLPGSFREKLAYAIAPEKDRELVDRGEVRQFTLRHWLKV
# Procedure: This assay was used to determine the affinity of ligands for the dopamine transporter by competition with [^3H]-Vanoxerine.
# HEK-293 cells (Tatsumi et al., Eur. J. Pharmacol. 1997, 30, 249-258) stably expressing recombinant hDAT were maintained with media (DMEM hi glucose with 10% FBS, 300 μg/ml G418 and 2 mM L-Glutamine) and incubated at 37° C. with 5% CO2. Cells were plated four hours prior to experiment by placing approximately 30,000 cells per well (in PBS) on white, opaque Cell-Tak coated 96 well plates. Extra buffer was apriated from the cell plates using an ELx405 plate washer.
# ^3[H] vanoxerine (GBR 12909) radioligand, specific activity approximately 59 Ci/mmol, stock concentration, 400 nM, and 50 mM Tris-HCl, 300 mM NaCl, (pH 7.4) buffers were used for Scintillation Proximity Assay IC50/Ki determination. […]
# The % inhibition was calculated for each compound tested [(Compound CPM at maximum concentration-Non-Specific CPM)/Total CPM*100]. […]
# as §2
smiles,measurement,setting,value
"Fc1cccc(CN(c2ccc3[nH]ncc3c2)C2CCNCC2)c1 [Compound 53, (3-Fluoro-benzyl)-(1H-indazol-5-yl)-piperidin-4-yl-amine]",Ki,[1],~0.316 nM
"COc1cccc(CN(c2ccc3[nH]ncc3c2)C2CCNCC2)c1 [Compound 54, (1H-Indazol-5-yl)-(3-methoxy-benzyl)-piperidin-4-yl-amine]",Ki,[2],~1.58 nM
"NS(=O)(=O)c1cccc(CN(c2ccc3[nH]ccc3c2)C2CCNCC2)c1 [Compound 69, 3-{[(1H-Indol-5-yl)-piperidin-4-yl-amino]-methyl}-benzenesulfonamide]",Ki,[3],~10 nM
